Measurements from publication PMC11013010, “Serendipitous Identification of Azine Anticancer Agents Using a Privileged Scaffold Morphing Strategy” (Molecules, 2024).
“And” between values parts separate entries of the source, which are not always exact repeats. Equal values may be shown once.

Assays:
[1] = Cytotoxicity assay (CellTiter Glo) on lymphoma cells; conditions: human
[2] = Cytotoxicity assay (CellTiter Glo) on normal fibroblasts; format: cell-based, human; conditions: human, FB789 normal fibroblast cells
Procedure: (§1) Cell-based assays were carried out on the normal human fibroblast FB789 cell line (kindly provided by Elena Dell’Ambra from IRCCS Istituto Dermopatico dell’Immacolata, Rome), on the Huh7 hepatocarcinoma cell line (kindly provided by Istituto Toscano Tumori, Core Research Laboratory, Siena, Italy), on the Caco-2 adenocarcinoma colorectal cell line (ATCC catalog. n. HTB-37), on the suspension H9 cell line (repository code ARP0001, NIBSC Centre for AIDS reagents) and on the adherent TZM-bl cell line (repository code ARP5011, NIBSC Centre for AIDS reagents).
The FB789 was cultured in Dulbecco’s Modified Eagle Medium (DMEM) and Ham’s F10 in a ratio of 50%, supplemented with 10% FBS, 2 mM L-glutamine, and 10,000 unit/mL penicillin/streptomycin.
(§2) The cytotoxicity of all investigated compounds was assayed in all cells lines as previously described. Briefly, confluent cells were treated with decreasing compound concentrations for 48h. The final DMSO concentration used was never greater than 0.5% v/v. Each experiment was performed in duplicate and repeated in two independent experiments. Cell viability was calculated using the CellTiter Glo 2.0 kit (Promega, Madison, WI, USA) and luminescence values signal obtained from cells treated with serial dilution of the compounds were measured through the GloMax® Discover Multi mode Microplate Reader (Promega) and elaborated with GraphPad PRISM software version 9.0 (La Jolla, San Diego, CA, USA). […] A non-toxic dose of each compound was used as the starting concentration in the antiviral activity assay.

[3] = Cytotoxicity assay (CellTiter Glo) on colon epithelial carcinoma cells; conditions: human, Caco-2
[4] = Cytotoxicity assay (CellTiter Glo) on hepatocarcinoma cells; format: cell-based; conditions: human, Huh7 hepatocarcinoma cells, Huh7 hepatocarcinoma
Procedure: as §1
(§3) High glucose Dulbecco’s Modified Eagle Medium with sodium pyruvate and L-glutamine (DMEM; Euroclone) was used to grow Huh-7 and TZM-bl. Minimum Essential Eagle Medium (EMEM; Euroclone) was used to propagate Caco-2. DMEM and EMEM were supplemented with 10% fetal bovine serum (FBS; Euroclone) and 1% penicillin/streptomycin (Pen/Strep, Euroclone). The growth medium with a lower concentration of FBS (1%) was used for viral propagation, cytotoxic and antiviral experiments in adherent cell lines. […] All cell lines were grown at 37 °C in a 5% CO2 atmosphere in a humidified incubator.
as §2

H9 cells = assay: Cytotoxicity assay (CellTiter Glo) on lymphoma cells; conditions: ratio CC50 FB789 / CC50 H9
Caco-2 cells = assay: Cytotoxicity assay (CellTiter Glo) on colon epithelial carcinoma cells; conditions: for TSI Caco-2: ratio CC50 FB789 / CC50 Caco-2
Huh7 cells = assay: Cytotoxicity assay (CellTiter Glo) on hepatocarcinoma cells; format: cell-based; conditions: for TSI Huh7: ratio CC50 FB789 / CC50 Huh7
Procedure: as §1, §3, §2

[5] = Parallel artificial membrane permeability assay (PAMPA); format: in vitro ADME; conditions: GI, pH 7.4, 5 h, RT
Procedure: To evaluate the apparent permeability of tested compounds, a DMSO stock solution [1 mM] of each derivative was prepared and then diluted 1:1 v/v with phosphate buffer (PBS 25 mM, pH 7.4) in order to make the donor solutions. According to the protocol already published, the gastrointestinal (GI) phospholipidic bilayer was mimed through adding a 1% w/v dodecane solution of phosphatidylcholine (PC). The sandwich plates were assembled and incubated for 5 h at RT. At the end time point, the amount of compound passed through the phospholipid bilayer was measured using HPLC-UV/MS. Finally, apparent permeability (Papp) and membrane retention (MR%) were calculated as previously described.

[6] = Kinetic aqueous solubility; format: physicochemical; conditions: Milli-Q water, 25 °C, water, kinetic from dmso stock; Mill-Q H2O, 3 h, RT; LOD 0.1 µg/mL
Procedure: For the quantitative analysis, a UV/LC-MS system was used. LC analysis was performed through an Agilent 1260 Infinity HPLC-DAD system (Agilent Technologies, Palo Alto, CA, USA), which constituted of a vacuum solvent degassing unit, a binary high-pressure gradient pump, and a UV detector, that was connected to an Agilent MSD 6130 system (Agilent Technologies, Palo Alto, CA, USA). The Agilent 1260 series mass spectra detection (MSD) single-quadrupole instrument was equipped with the orthogonal spray API-ES (Agilent Technologies, Palo Alto, CA, USA). Nitrogen was used as a nebulizing and drying gas. Chromatographic separation was performed using a Phenomenex Kinetex EVO C18-100 Å (150 × 4.6 mm, 5 μm particle size) at 25 °C and a gradient elution with a binary solution; eluent A was H2O, while eluent B consisted of ACN (both eluents were acidified with FA 0.1% v/v). […] UV detection was monitored at 254 nm. Spectra were acquired over the scan range m/z 100–1500 in positive mode.
DMSO-stock compounds’ solutions were diluted with Mill-Q H2O to a final concentration of 200 μM. The percentage of DMSO never exceeded 2% v/v. Samples were incubated under gentle shaking at 25 °C (RT) conditions for 3 h. The suspensions were filtered using a 0.45 µm nylon filter (Acrodisc, VWR, Radnor, PE, USA), and the amount of solubilized compound was determined with the HPLC-UV-MS method reported above. The quantification of the solubilized compound was made with the appropriate calibration curve realized with stock solutions in DMSO (0.1–100 µg/mL). The limit of detection (LOD) was quantified at 0.1 µg/mL.

[7] = Metabolic stability assay with human liver microsomes; format: in vitro ADME; conditions: 1 h, 37 °C, 50 µM
Procedure: A DMSO solution of selected compounds was incubated in the presence of phosphate buffer (25 mM, pH 7.4), human liver microsomal protein (200 µg/mL), and an NADPH regenerating system in MgCl2 (48 mM) at a final concentration of 50 µM. The metabolic reactions were conducted for 1 h under shaking at 37 °C and then stopped by adding cold acetonitrile (ACN). Centrifuging the mixtures at 5000 rpm, the supernatant was separated, dried under nitrogen flow, and finally suspended in methanol (MeOH). The amount of the parent drug and the metabolites were determined as previously described.

Plasma stability assay = format: in vitro ADME; conditions: human plasma, 24 h, 37 °C; % of Time 0
Procedure: A DMSO solution of each compound was incubated at a final concentration of 100 µM at 37 °C under shaking with HEPES buffer (25 mM, 140 mM NaCl, pH 7.4) and human plasma. At time 0 and after 24 h, samples were collected from the reaction mixtures and treated with cold ACN. After centrifugation at 5000 rpm for 10 min, the supernatant was collected, and the amount of unmodified compound was determined using the HLPC-UV/MS method described above. Modified compounds were calculated using time zero as 100% of the unmodified compound.

[8] = pyrimidines and pyridines, read out at 48 h, mean ± SD
[9] = triazines 1-9, read-out 48 h, Cell-Titer Glo
[10] = 21a vs triazine 4, 33b vs triazine 6

| Compound | CC50 at 48 h [1] [µM] | CC50 at 48 h [2, 8] [µM] | CC50 at 48 h [3] [µM] | CC50 at 48 h [4, 8] [µM] | TSI H9 (H9 cells; triazines 1-9) | CC50 at 48 h [2, 9] [µM] | TSI Caco-2 (Caco-2 cells; triazines 1-9) | TSI Huh7 (Huh7 cells; triazines 1-9) | CC50 at 48 h ([4]; triazines 1-9, read-out 48 h) [µM] | MR (membrane retention) [5] | Papp at 5 h, 0.5 mM [5] [×10⁻⁶ cm/s] | TSI H9 (H9 cells; pyrimidines and pyridines) | solubility kinetic at 3 h [6] [µg/mL] | Metabolic Stability [7] [%] | TSI Caco-2 (Caco-2 cells; pyrimidines and pyridines) | TSI Huh7 (Huh7 cells; pyrimidines and pyridines) | Plasmatic Stability (Plasma stability assay) [%] | fold higher TSI than reference triazine, Caco-2 (Caco-2 cells; [10]) [fold] | fold higher TSI than reference triazine, Huh7 (Huh7 cells; [10]) [fold] |
| --- | --- | --- | --- | --- | --- | --- | --- | --- | --- | --- | --- | --- | --- | --- | --- | --- | --- | --- | --- |
| Oc1ccccc1/C=N/Nc1cc(N2CCOCC2)nc(N2CCOCC2)c1 [Compound 27a] | 76 ± 4 | 11 ± 3 | 29 ± 2 | 44 ± 5 |  |  |  |  |  |  |  |  |  |  |  |  |  |  |  |
| Cc1cccc(/C=N/Nc2nc(N3CCOCC3)nc(N3CCOCC3)n2)c1 [Compound 3] | 74 ± 6.2 |  | 184 ± 11 |  | 3.4 | 250 ± 10 | 1.4 | 5.6 | 45 ± 10 |  |  |  |  |  |  |  |  |  |  |
| Oc1ccccc1/C=N/Nc1cc(Nc2ccc(F)cc2)nc(Nc2ccc(F)cc2)n1 [Compound 19a] | 31 ± 8 | 14 ± 3 | 2 ± 1 | 1 ± 0.3 |  |  |  |  |  | 20.99% and 20.91 ± 1.75% | 3.59 ± 0.21 | 0.5 | < 0.1 | >99.9 | 7.0 | 14.0 | 86.64 ± 0.17 |  |  |
| Oc1ccccc1/C=N/Nc1cc(N2CCOCC2)nc(N2CCOCC2)n1 [Compound 14a] | > 100 | 30 ± 6 | 84 ± 7 | 82 ± 6 |  |  |  |  |  |  |  |  |  |  |  |  |  |  |  |
| Cc1cccc(/C=N/Nc2cc(N3CCOCC3)nc(N3CCOCC3)n2)c1 [Compound 14b] | 14 ± 7 | 9 ± 1 | 11 ± 2 | 8 ± 4 |  |  |  |  |  |  |  |  |  |  | 0.8 |  |  |  |  |
| Cc1cccc(/C=N/Nc2cc(Nc3ccc(F)cc3)nc(N3CCOCC3)n2)c1 [Compound 21b] | > 100 | 95 ± 1 | 113 ± 4 | 67 ± 23 |  |  |  |  |  |  |  | <1.0 |  |  | 0.8 |  |  |  |  |
| CC(=O)Nc1ccc(/C=N/Nc2nc(Nc3ccc(F)cc3)nc(N3CCOCC3)n2)cc1 [Compound 5] | 30 ± 5 |  | 70 ± 6 |  | 0.9 | 27 ± 3 | 0.4 | 0.6 | 45 ± 6 |  |  |  |  |  |  |  |  |  |  |
| Oc1ccccc1/C=N/Nc1cc(Nc2ccc(F)cc2)nc(N2CCOCC2)c1 [Compound 38a] | 37 ± 2 | 3 ± 1 | 19 ± 0.1 | 24 ± 14 |  |  |  |  |  |  |  | 0.1 |  |  | 0.2 | 0.1 |  |  |  |
| Oc1ccccc1/C=N/Nc1nc(Nc2ccc(F)cc2)nc(Nc2ccc(F)cc2)n1 [Compound 7] | 2 ± 1 |  | 0.8 ± 0.1 |  | 3.5 | 7 ± 2 | 8.8 | 3.5 | 2 ± 0.4 |  |  |  |  |  |  |  |  |  |  |
| Oc1ccccc1/C=N/Nc1cc(Nc2ccc(F)cc2)nc(N2CCOCC2)n1 [Compound 21a] | 11 ± 2 | 10 ± 5 | 2 ± 0.4 | 3 ± 1 |  |  |  |  |  | 26.03 ± 6.17% | 4.8 ± 0.73 | no selectivity | < 0.1 | >99.9 | 5.0 | 3.3 | 96.93 ± 2.73 | 1.4 | 2.8 |
| Cc1cccc(/C=N/Nc2cc(Nc3ccc(F)cc3)nc(Nc3ccc(F)cc3)n2)c1 [Compound 19b] | 48 ± 3.5 | 61 ± 9 | 4 ± 1 | 6 ± 1 |  |  |  |  |  | 27.42% and 27.42 ± 1.22% | 5.64 ± 0.59 | 1.3 | < 0.1 | 98.31 ± 0.11 | 15.3 | 10.2 | >99.9 |  |  |
| CC(=O)Nc1ccc(/C=N/Nc2nc(Nc3ccc(F)cc3)nc(Nc3ccc(F)cc3)n2)cc1 [Compound 8] | > 100 |  | > 200 |  | <0.6 | 57 ± 7 | <0.3 | <0.3 | > 200 |  |  |  |  |  |  |  |  |  |  |
| Cc1cccc(/C=N/Nc2nc(Nc3ccc(F)cc3)nc(Nc3ccc(F)cc3)n2)c1 [Compound 9] | > 100 |  | 200 |  |  | 50 ± 5 |  |  | > 200 |  |  |  |  |  |  |  |  |  |  |
| Oc1ccccc1/C=N/Nc1cc(Nc2ccc(F)cc2)nc(Nc2ccc(F)cc2)c1 [Compound 33a] | 43 ± 9 | 0.3 ± 0.3 | 12 ± 4 | 18 ± 5 |  |  |  |  |  |  |  | 0.01 |  |  | 0.03 | 0.02 |  |  |  |
| CC(=O)Nc1ccc(/C=N/Nc2nc(N3CCOCC3)nc(N3CCOCC3)n2)cc1 [Compound 2] | > 100 |  | > 200 |  | <1.3 | 134 ± 11 | <0.7 | <0.7 | > 200 |  |  |  |  |  |  |  |  |  |  |
| Cc1cccc(/C=N/Nc2nc(Nc3ccc(F)cc3)nc(N3CCOCC3)n2)c1 [Compound 6] | > 100 |  | 22 ± 2 |  | <1.0 | 100 ± 8 | 4.5 | 2.1 | 47 ± 5 |  |  |  |  |  |  |  |  |  |  |
| Cc1cccc(/C=N/Nc2cc(N3CCOCC3)nc(N3CCOCC3)c2)c1 [Compound 27b] | 50 ± 4 | 81 ± 2 | 30 ± 2 | 39 ± 3 |  |  |  |  |  |  |  |  |  |  | 2.7 |  |  |  |  |
